Measured values taken from patent US12187705B2, “Heteroaryl-triazole and heteroaryl-tetrazole compounds as pesticides” (Bayer Aktiengesellschaft, priority 2018, dated 2025).

Columns and labels:
Type in all cases: in vivo
[1] = tested on: Ctenocephalides felis; assay: Ctenocephalides felis in-vitro contact test adult cat flea; conditions: Ctenocephalides felis; 5 μg/cm^2 (=500 g/ha), after 48 hours; read-out: efficacy (fleas dead or moribund)
Description: Ctenocephalides felis—In-Vitro Contact Test Adult Cat Flea
9 mg compound is solved in 1 ml acetone and diluted with acetone to the desired concentration. 250 μl of the test solution is filled in 25 ml glass test tubes and homogeneously distributed on the inner walls by rotation and tilting on a shaking device (2 h at 30 rpm). With a compound concentration of 900 ppm, an inner surface of 44.7 cm^2 and a homogeneous distribution, a dose of 5 μg/cm^2 is achieved.
After the solvent has evaporated, each test tube is filled with 5-10 adult cat fleas (Ctenocephalides felis), closed with a perforated lid and incubated in a lying position at room temperature and relative humidity. After 48 hours efficacy is determined. The fleas are patted on the ground of the tubes and are incubated on a heating plate at 45-50° C. for at most 5 minutes. Immotile or uncoordinated moving fleas, which are not able to escape the heat by climbing upwards, are marked as dead or moribund.
An efficacy of 100% means all fleas are dead or moribund; 0% means no fleas are dead or moribund.

[2] = tested on: Boophilus microplus; assay: Boophilus microplus injection test; conditions: Rhipicephalus microplus, 168 h, 20 μg/animal, egg deposition after 7 days, read-out: efficacy (infertile eggs)
Description: Boophilus microplus—Injection Test
(§1) Solvent: dimethyl sulfoxide
To produce a suitable preparation of active compound, 10 mg of active compound are dissolved in 0.5 ml solvent, and the concentrate is diluted with solvent to the desired concentration.
Five adult engorged female ticks (Boophilus microplus) are injected with 1 μl compound solution into the abdomen. The ticks are transferred into replica plates and incubated in a climate chamber.
After 7 days egg deposition of fertile eggs is monitored. Eggs where fertility is not visible are stored in a climate chamber till hatching after about 42 days. An efficacy of 100% means all eggs are infertile; 0% means all eggs are fertile.

[3] = tested on: Nezara viridula; assay: Nezara viridula spray test; conditions: in Hordeum vulgare, 96 h
Description: Nezara viridula—Spray Test
(§2) To produce a suitable preparation of active compound, 1 part by weight of active compound is mixed with the stated amount of solvent, and the concentrate is diluted with water, containing an emulsifier concentration of 1000 ppm, to the desired concentration. Further test concentrations are prepared by dilution with emulsifier containing water.
Barley plants (Hordeum vulgare) infested with larvae of the southern green stink bug (Nezara viridula) are sprayed with a test solution containing the desired concentration of the active ingredient.
After 4 days mortality in % is determined. 100% means all the stink bugs have been killed; 0% means none of the stink bugs have been killed.

[4] = tested on: Anopheles funestus strain FUMOZ-R; assay: Anopheles funestus test (ANPHFU surface treatment & contact assay); conditions: 24 hours after contact, read-out: efficacy (mortality); for mortality at 4 mg/m2: surface concentration 4 mg/m^2, 30 minutes exposure; for mortality at 20 mg/m2: surface concentration 20 mg/m^2, 30 minutes exposure
Description: Anopheles funestus Test (ANPHFU Surface Treatment & Contact Assay)
(§3) Solvent: Aceton+2000 ppm rapeseed oil methyl ester (RME)
In order to produce a sufficient, active ingredient containing solution it is necessary to solve the test-compound in the solvent-mix (Acetone at 2 mg/ml/RME 2000 ppm). This solution is pipetted onto a glazed tile and after evaporation of the Acetone, adult mosquitoes of the species Anopheles funestus strain FUMOZ-R (Hunt et al., Med Vet Entomol. 2005 September; 19(3):271-5) are placed onto the dried surface. The exposure time is 30 minutes.
(§4) Mortality in percent (%) is determined 24 hours after contact to the treated surface. 100% mortality means that all test-insects are dead, whereas 0% means that not a single insect died.

[5] = tested on: Ctenocephalides felis; assay: Ctenocephalides felis oral test; conditions: Ctenocephalides felis, in Bos taurus, po, 48 h
Description: Ctenocephalides felis—Oral Test
as §1
To produce a suitable preparation of active compound, 10 mg of active compound are dissolved in 0.5 ml solvent, and the concentrate is diluted with cattle blood to the desired concentration.
Approximately 20 adult unfed cat fleas (Ctenocephalides felis) are placed in flea chambers. The blood chamber, sealed with parafilm on the bottom, are filled with cattle blood supplied with compound solution and placed on the gauze covered top of the flea chamber, so that the fleas are able to suck the blood. The blood chamber is heated to 37° C. whereas the flea chamber is kept at room temperature.
After 2 days mortality in % is determined. 100% means all the fleas have been killed; 0% means none of the fleas have been killed.

[6] = tested on: Diabrotica balteata; assay: Diabrotica balteata spray test; conditions: Diabrotica balteata, 168 h; 160 μg/well, wheat seeds, after 7 days; read-out: efficacy (seedlings grown)
Description: Diabrotica balteata—Spray Test
as §2
Soaked wheat seeds (Triticum aestivum) are placed in a multiple well plate filled with agar and some water and are incubated for 1 day to germinate (5 seeds per well). The germinated wheat seeds are sprayed with a test solution containing the desired concentration of the active ingredient. Afterwards each unit is infected with 10-20 larvae of the banded cucumber beetle (Diabrotica balteata).
After 7 days efficacy in % is determined. 100% means all the seedlings have grown up like in the untreated, uninfected control; 0% means none of the seedlings have grown.

[7] = tested on: Nilaparvata lugens; assay: Nilaparvata lugens spray test; conditions: Nilaparvata lugens, in Oryza sativa, 96 h
Description: Nilaparvata lugens—Spray Test
(§5) To produce a suitable preparation of active compound, 1 part by weight of active compound is mixed with the stated amount of solvents and is diluted with water, containing an emulsifier concentration of 1000 ppm, to the desired concentration. Further test concentrations are prepared by dilution with emulsifier containing water.
Rice plants (Oryza sativa) are sprayed with a preparation of the active ingredient of the desired concentration and the plants are infested with the brown planthopper (Nilaparvata lugens).
After 4 days mortality in % is determined. 100% means all planthoppers have been killed and 0% means none of the planthoppers have been killed.

[8] = tested on: Culex quinquefasciatus strain P00; assay: Culex quinquefasciatus test (CULXFA surface treatment & contact assay); conditions: 24 hours after contact, read-out: efficacy (mortality); for mortality at 4 mg/m2: surface concentration 4 mg/m^2, 30 minutes exposure; for mortality at 20 mg/m2: surface concentration 20 mg/m^2, 30 minutes exposure
Description: Culex quinquefasciatus Test (CULXFA Surface Treatment & Contact Assay)
as §3
In order to produce a sufficient, active ingredient containing solution it is necessary to solve the test-compound in the solvent-mix (Acetone at 2 mg/ml/RME 2000 ppm). This solution is pipetted onto a glazed tile and after evaporation of the Acetone, adult mosquitoes of the species Culex quinquefasciatus strain P00 are placed onto the dried surface. The exposure time is 30 minutes.
as §4

[9] = tested on: Aedes aegypti strain MONHEIM; assay: Aedes aegypti test (AEDSAE surface treatment & contact assay); conditions: 24 hours after contact, read-out: efficacy (mortality); for mortality at 4 mg/m2: surface concentration 4 mg/m^2, 30 minutes exposure; for mortality at 20 mg/m2: surface concentration 20 mg/m^2, 30 minutes exposure
Description: Aedes aegypti Test (AEDSAE Surface Treatment & Contact Assay)
as §3
In order to produce a sufficient, active ingredient containing solution it is necessary to solve the test-compound in the solvent-mix (Acetone at 2 mg/ml/RME 2000 ppm). This solution is pipetted onto a glazed tile and after evaporation of the Acetone, adult mosquitoes of the species Aedes aegypti strain MONHEIM are placed onto the dried surface. The exposure time is 30 minutes.
as §4

[10] = tested on: Myzus persicae; assay: Myzus persicae oral test; conditions: 120 h
Description: To produce a suitable preparation of active compound, 1 part by weight of active compound is mixed with the stated amount of solvent, and the concentrate is diluted with water to the desired concentration.
50 μl compound solution is filled in microtiter plates and 150 μl IPL41 insect medium (33%+15% sugar) is added to obtain a total volume of 200 μl per well. Afterwards the plates are sealed with parafilm through which a mixed population of the green peach aphid (Myzus persicae) can suck on the compound preparation.
(§6) After 5 days mortality in % is determined. 100% means all aphids have been killed and 0% means none of the aphids have been killed.

[11] = tested on: Spodoptera frugiperda; assay: Spodoptera frugiperda spray test; conditions: in Zea mays, 168 h
Description: Spodoptera frugiperda—Spray Test
as §5
Maize (Zea mays) leaf sections are sprayed with a preparation of the active ingredient of the desired concentration. Once dry, the leaf sections are infested with fall armyworm larvae (Spodoptera frugiperda).
After 7 days mortality in % is determined. 100% means all caterpillars have been killed and 0% means none of the caterpillars have been killed.

[12] = tested on: Myzus persicae; assay: Myzus persicae spray test; conditions: in Brassica rapa, foliar, 120 h
Description: Myzus persicae—Spray Test
as §5
Chinese cabbage (Brassica pekinensis) leaf disks infected with all instars of the green peach aphid (Myzus persicae), are sprayed with a preparation of the active ingredient of the desired concentration.
as §6

Row | SMILES | pest or weed control at 5 µg/cm2, 5 µg/cm2 [1] | pest or weed control at 0.02 mg [2] | mortality at 500 g/ha [3] | mortality at 4 mg/m2 [4] | mortality at 20 mg/m2 [4] | mortality at 100 ppm [5] | pest or weed control at 160 µg/disc, 160 µg/well [6] | mortality at 500 g/ha [7] | mortality at 4 mg/m2 [8] | mortality at 20 mg/m2 [8] | mortality at 4 mg/m2 [9] | mortality at 20 mg/m2 [9] | mortality at 4 ppm [10] | mortality at 500 g/ha [11] | mortality at 500 g/ha [12]
1 | CC(c1ncnn1-c1ncccn1)N(CC(F)F)C(=O)c1cc(Cl)cc(S(C)(=O)=O)c1 (stereo not drawn) [Example I-041] | 90% | 100% | 100% | 85 to 100% | 85 to 100% | 100% | 100% | 100% | 80 to 100% | 80 to 100% | 80 to 100% | 90 to 100% | 100% |  | 
2 | CC(NC(=O)c1cc(Cl)cc(-n2cncn2)c1)c1ncnn1-c1ncccn1 (stereo not drawn) [Example I-049] |  | 100% | 100% | 85 to 100% | 85 to 100% | 100% | 100% | 100% |  | 80 to 100% | 80 to 100% | 90 to 100% |  |  | 
3 | CON=C(C)c1cc(Cl)cc(C(=O)N[C@@H](C)c2ncnn2-c2ncccn2)c1 [Example I-057, 3-chloro-5-(N-methoxyethanimidoyl)-N-{(1S)-1-[1-(pyrimidin-2-yl)-1H-1,2,4-triazol-5-yl]ethyl}benzamide] | 100% |  | 100% |  |  | 100% | 80% |  |  | 80 to 100% | 80 to 100% | 90 to 100% | 100% | 100% | 90%
4 | C[C@H](NC(=O)c1cc(Cl)cc(S(=O)(=O)CC(F)(F)F)c1)c1ncnn1-c1ncccn1 [Example I-093, 3-chloro-N-{(1S)-1-[1-(pyrimidin-2-yl)-1H-1,2,4-triazol-5-yl]ethyl}-5-[(2,2,2-trifluoroethyl)sulfonyl]benzamide] |  |  | 100% | 85 to 100% |  |  | 100% |  | 80 to 100% | 80 to 100% | 80 to 100% | 90 to 100% | 90% |  | 
5 | C[C@@H](NC(=O)c1cc(Cl)cc(S(C)(=O)=O)c1)c1ncnn1-c1ncc(C(F)(F)F)cn1 [Example I-095] | 100% |  | 100% |  |  |  | 100% |  |  |  |  |  | 100% | 100% | 90%
6 | Cc1cnc(-n2ncnc2[C@@H](C)NC(=O)c2cc(Cl)cc(S(C)(=O)=O)c2)nc1 [Example I-096] |  |  | 100% |  |  |  |  |  |  |  |  |  | 100% | 100% | 90%
7 | Cc1cnc(-n2ncnc2[C@@H](C)NC(=O)c2cc(Cl)cc(S(=O)(=O)C(F)(F)F)c2)nc1 [Example I-099] |  |  | 100% |  |  |  | 100% |  |  |  |  |  | 100% | 100% | 100%
8 | C[C@@H](NC(=O)c1csc(Cl)c1)c1ncnn1-c1ccc(C#N)cn1 [Example I-114] |  |  |  |  |  |  | 100% |  |  |  |  |  |  |  | 90%
9 | C[C@H](NC(=O)c1cc(Cl)cc(C2(C#N)CC2)c1)c1ncnn1-c1ccc(C#N)cn1 [Example I-119, 3-chloro-5-(1-cyanocyclopropyl)-N-{(1S)-1-[1-(5-cyanopyridin-2-yl)-1H-1,2,4-triazol-5-yl]ethyl}benzamide] |  |  | 100% |  |  |  | 100% |  |  |  |  |  | 100% | 100% | 90%
10 | C[C@@H](NC(=O)c1cc(Cl)cc(C(C)(C)C)c1)c1ncnn1-c1ncccn1 [Example I-124] |  |  | 100% |  |  |  | 100% |  |  |  |  |  |  |  | 100%
